The values below come from patent US11974991B1, “Adenosine receptor activity of methyl/ethyl 3-(substituted benzoyl)-6,8-dimethylindolizine-2-substituted-1-carboxylates” (KING FAISAL UNIVERSITY, priority 2023, dated 2024).

One assay has as its target human A1R (Homo sapiens (Human), UniProt P30542). The assay is described as follows: Displacement of specific [3H]-CCPA binding at human A1R expressed in CHO cells. Conditions: for Ki: [3H]-CCPA displacement, CHO cells, means ± SE, read-out: hA1R (Ki nM). From the text:
(§1) Table 1 below reports the affinity and antagonist values of compounds KNV1-KNV13. In particular, the binding affinity is expressed in Ki and the antagonistic activity in IC50.

Another assay deals with human A2AR (Homo sapiens (Human), UniProt P29274). Briefly: Displacement of specific [3H]-NECA binding at human A2AR expressed in CHO cells. The note with it: for Ki: [3H]-NECA displacement, CHO cells, means ± SE, read-out: hA2AR (Ki nM).
Sequence of human A2AR (P29274 whole entry): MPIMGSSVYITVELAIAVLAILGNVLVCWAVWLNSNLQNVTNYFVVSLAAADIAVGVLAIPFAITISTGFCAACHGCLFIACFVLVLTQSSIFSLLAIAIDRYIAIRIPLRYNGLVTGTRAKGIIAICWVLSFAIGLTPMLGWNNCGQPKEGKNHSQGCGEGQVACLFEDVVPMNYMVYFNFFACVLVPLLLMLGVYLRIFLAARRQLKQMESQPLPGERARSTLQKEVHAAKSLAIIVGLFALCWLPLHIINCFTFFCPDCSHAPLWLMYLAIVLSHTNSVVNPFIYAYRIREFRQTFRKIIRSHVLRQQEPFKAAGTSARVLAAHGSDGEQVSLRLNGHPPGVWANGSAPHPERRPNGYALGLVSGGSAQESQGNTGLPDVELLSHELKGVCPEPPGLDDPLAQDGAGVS
Description: as §1

The target in a further assay is hA2BR (Homo sapiens (Human), UniProt P29275). The assay is described as follows: Inhibition of NECA-stimulated adenylyl cyclase activity / cAMP accumulation (GloSensor cAMP assay) in CHO cells expressing hA2BR. Conditions: for IC50: inhibiting NECA-stimulated adenylyl cyclase activity, CHO cells, means ± SE. It is filed as cell-based. The protocol:
(§2) The activity of the present compounds was evaluated using the GloSensor™ cAMP assay, which is a new non-radioactive method offering a simple approach to monitor GPCR activity through changes in the intracellular cAMP concentration. This assay uses a mutant form of Photinus pyralis luciferase into which a cAMP-binding protein moiety has been inserted. The binding with cAMP triggers a biosensor conformational change that leads to an increase of light output allowing to evaluate the activity of ligands at the receptor under study. Following pre-equilibration with a substrate, cells stably expressing both the receptor of interest and the biosensor can be used to evaluate GPCR function enabling easy kinetic measurements of cAMP accumulation or turnover in living cells.
The antagonist profile of the compounds on A2BAR was evaluated by assessing their ability to counteract the agonist NECA-induced increase of cAMP accumulation. After 2 hrs of equilibration in reaction medium cells were incubated in 384 well plate (10 min at room temperature) with 3 μl of different antagonist concentrations and then treated with 3 μl of a fixed dose of NECA. After further 10 minutes of incubation various luminescence reads were performed at different incubation times.
In general terms: Changes in cAMP serve as a functional read-out for many G protein-coupled receptors.

Another assay addresses human A3R (Homo sapiens (Human), UniProt P0DMS8). The assay is described as follows: Displacement of specific [3H]-HEMADO binding at human A3R expressed in CHO cells.
Description: as §1

The target in a further assay is hA3R (Homo sapiens (Human), UniProt P0DMS8). Briefly: Counteracting NECA-induced decrease of cAMP accumulation (GloSensor cAMP assay) in CHO cells expressing hA3R. It is filed as cell-based. The protocol: as §2
Sequence of hA3R (P0DMS8 whole entry): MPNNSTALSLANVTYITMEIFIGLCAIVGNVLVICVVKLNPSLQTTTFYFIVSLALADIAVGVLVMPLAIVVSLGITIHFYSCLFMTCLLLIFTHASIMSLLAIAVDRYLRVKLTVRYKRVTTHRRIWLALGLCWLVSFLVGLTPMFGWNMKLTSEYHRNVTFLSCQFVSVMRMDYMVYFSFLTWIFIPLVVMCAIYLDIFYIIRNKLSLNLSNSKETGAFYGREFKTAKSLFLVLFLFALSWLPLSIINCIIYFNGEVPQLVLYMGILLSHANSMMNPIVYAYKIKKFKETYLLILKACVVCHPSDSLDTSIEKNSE
The antagonist profile of the compounds on A3AR was studied by assessing their ability to counteract the NECA-induced decrease of cAMP accumulation. After 2 hrs of equilibration in reaction medium the cells were incubated in a 384 well plate (10 min at room temperature) with 3 μl of different antagonist concentrations and then treated with 3 μl of a fixed dose of agonist. 1 μl of Forskolin 500 μM, final concentration 10 μM, were added 10 minutes after agonist and various luminescence reads were performed at different incubation times.

Where [1] appears, read: [3H]-HEMADO displacement, CHO cells, means ± SE, read-out: hA3R (Ki nM).
Where [2] appears, read: counteracting NECA-induced decrease of cAMP accumulation, CHO cells expressing hA3R, means ± SE, read-out: hA2AR (IC50 nM) [footnote e: hA3R].

Read-outs that look alike come from different tables or passages of the source.

What is called Ki is the equilibrium dissociation constant of an inhibitor or competing ligand from its target. By IC50 is commonly meant the midpoint of a concentration-inhibition curve.

Sequence of hA2BR (P29275 whole entry): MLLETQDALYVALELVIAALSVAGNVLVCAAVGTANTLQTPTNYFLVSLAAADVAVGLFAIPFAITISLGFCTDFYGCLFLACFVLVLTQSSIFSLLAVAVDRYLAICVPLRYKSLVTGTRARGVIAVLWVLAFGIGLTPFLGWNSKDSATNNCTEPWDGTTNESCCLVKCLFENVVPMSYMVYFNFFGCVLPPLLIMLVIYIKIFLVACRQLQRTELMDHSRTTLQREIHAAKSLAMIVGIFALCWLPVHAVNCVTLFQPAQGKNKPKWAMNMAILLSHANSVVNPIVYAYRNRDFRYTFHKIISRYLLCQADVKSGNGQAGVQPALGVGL
Sequence of human A3R (P0DMS8 whole entry): as the sequence (P0DMS8 whole entry) above
Sequence of human A1R (P30542 whole entry): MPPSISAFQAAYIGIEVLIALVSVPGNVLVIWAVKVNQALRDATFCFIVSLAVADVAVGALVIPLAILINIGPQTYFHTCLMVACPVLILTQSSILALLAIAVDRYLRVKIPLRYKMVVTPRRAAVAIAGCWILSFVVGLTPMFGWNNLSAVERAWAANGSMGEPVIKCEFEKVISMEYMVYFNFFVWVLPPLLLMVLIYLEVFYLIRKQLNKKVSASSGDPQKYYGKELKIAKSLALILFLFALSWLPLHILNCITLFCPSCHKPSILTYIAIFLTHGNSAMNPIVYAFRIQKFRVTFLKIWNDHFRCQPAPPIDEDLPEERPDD

In the case of `CCOC(=O)c1cc(C(=O)c2ccc(Cl)cc2)n2cc(C)cc(C)c12` [KNV1, Ethyl 3-(4-chlorobenzoyl)-6,8-dimethylindolizine-1-carboxylate], the Ki is > 30000 nM on human A1R, > 30000 nM at human A2AR and 591 ± 112 nM on human A3R (setting [1]). Further, the IC50 was > 30000 nM against hA2BR and 1510 ± 351 nM on hA3R (setting [2]).
`COC(=O)c1c(C(=O)OC)c2c(C)cc(C)cn2c1C(=O)c1ccc(OC)cc1` [KNV2, Dimethyl 3-(4-methoxybenzoyl)-6,8-dimethylindolizine-1,2-dicarboxylate]: the Ki was 1330 ± 217 nM on human A1R, 4820 ± 243 nM on human A2AR and 1910 ± 45 nM on human A3R (setting [1]). Further, the half-inhibitory concentration (IC50) was > 30000 nM against hA2BR and 7900 ± 1080 nM on hA3R (setting [2]).
As for `COC(=O)c1c(C(=O)OC)c2c(C)cc(C)cn2c1C(=O)c1ccc(Br)cc1` [KNV4, Dimethyl 3-(4-bromobenzoyl)-6,8-dimethylindolizine-1,2-dicarboxylate], the Ki was determined as 6980 ± 330 nM at human A1R, 5540 ± 998 nM on human A2AR and 2160 ± 468 nM on human A3R (setting [1]). The 50% inhibitory concentration (IC50) against hA2BR was > 30000 nM; at hA3R (setting [2]), 9580 ± 1080 nM.
Taken in the same sequence, the figures for `CCOC(=O)c1cc(C(=O)c2ccccc2[N+](=O)[O-])n2cc(C)cc(C)c12` [KNV6, Ethyl 6,8-dimethyl-3-(2-nitrobenzoyl)indolizine-1-carboxylate] were > 30000 nM, 7970 ± 1660 nM, 930 ± 159 nM, > 30000 nM and 3420 ± 879 nM.
Taken in the same sequence, the figures for `CCOC(=O)c1cc(C(=O)c2ccc(C)cc2)n2cc(C)cc(C)c12` [KNV7, Ethyl 6,8-dimethyl-3-(4-methylbenzoyl)indolizine-1-carboxylate] were > 30000 nM, 4970 ± 508 nM, 1070 ± 157 nM, > 30000 nM and 4210 ± 1150 nM.
Taken in the same sequence, the figures for `COC(=O)c1c(C(=O)OC)c2c(C)cc(C)cn2c1C(=O)c1ccc(C)cc1` [KNV8, Dimethyl 6,8-dimethyl-3-(4-methylbenzoyl)indolizine-1,2-dicarboxylate] were 2390 ± 171 nM, 1609 ± 13 nM, 3090 ± 6 nM, > 30000 nM and 11000 ± 2050 nM.
As to `CCOC(=O)c1cc(C(=O)c2ccc(OC)cc2)n2cc(C)cc(C)c12` [KNV9, Ethyl 3-(4-methoxybenzoyl)-6,8-dimethylindolizine-1-carboxylate], the values for the Ki on human A1R, on human A2AR and at human A3R (setting [1]) were > 30000 nM, > 30000 nM and 305 ± 57 nM, respectively. Further, the IC50 is > 30000 nM on hA2BR and 865 ± 105 nM at hA3R (setting [2]).
`COC(=O)c1c(C(=O)OC)c2c(C)cc(C)cn2c1C(=O)c1ccc(Cl)cc1` [KNV10, Dimethyl 3-(4-chlorobenzoyl)-6,8-dimethylindolizine-1,2-dicarboxylate]: the values for the Ki on human A1R, on human A2AR and at human A3R (setting [1]) were 5610 ± 1080 nM, 6880 ± 705 nM and 924 ± 127 nM, respectively. Besides, the figures for the IC50 against hA2BR and on hA3R (setting [2]) were > 30000 nM and 4210 ± 521 nM, respectively.
Taken in the same sequence, the figures for `CCOC(=O)c1cc(C(=O)c2ccc(C#N)cc2)n2cc(C)cc(C)c12` [KNV11, Ethyl 3-(4-cyanobenzoyl)-6,8-dimethylindolizine-1-carboxylate] were > 30000 nM, > 30000 nM, 8540 ± 1500 nM, > 30000 nM and 25900 ± 4200 nM.
In the same order, the values of `COC(=O)c1c(C(=O)OC)c2c(C)cc(C)cn2c1C(=O)c1ccc(C#N)cc1` [KNV12, Dimethyl 3-(4-cyanobenzoyl)-6,8-dimethylindolizine-1,2-dicarboxylate] are > 30000 nM, > 30000 nM, 12100 ± 1700 nM, > 30000 nM and 41100 ± 9220 nM.
In the same order, the values of `CCOC(=O)c1cc(C(=O)c2cc(C(F)(F)F)cc(C(F)(F)F)c2)n2cc(C)cc(C)c12` [KNV13, Ethyl 3-(3,5-bis(trifluoromethyl)benzoyl)-6,8-dimethylindolizine-1-carboxylate] are > 30000 nM, > 30000 nM, 7140 ± 130 nM, > 30000 nM and 28000 ± 5220 nM.
As to “Ethyl 3-(4-bromobenzoyl)-6,8-dimethylindolizine-1-carboxylate [KNV3]”, the inhibitory constant (Ki) on human A1R, on human A2AR and at human A3R (setting [1]) was > 30000 nM throughout. In addition, the half-inhibitory concentration (IC50) on hA2BR and at hA3R (setting [2]) was > 30000 nM in each case.
Regarding “Ethyl 3-(4-fluorobenzoyl)-6,8-dimethylindolizine-1-carboxylate [KNV5]”, the “activity in the other subtypes (A1)” value at human A1R is on record as “not active”. The Ki on human A1R is > 30000 nM; on human A2AR it was > 30000 nM; on human A3R (setting [1]), 213 ± 16 nM; on human A3R (unit inferred, read-out: Ki towards A3AR), 213 nM. Also, the “activity in the other subtypes (A2A)” value at human A2AR is recorded as “not active”. Moreover, on hA2BR, the “activity in the other subtypes (A2B)” value is reported as “not active”. Moreover, the 50% inhibitory concentration (IC50) against hA2BR was > 30000 nM; at hA3R (setting [2]), 196 ± 55 nM; on hA3R (unit inferred, read-out: IC50, antagonistic activity on A3AR) it was 196 nM.
